Our source for the TGI and GI50 values is PubChem BioAssay (NCI).

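96-well plates; 48 h exposure; 5 concentrations. Endpoints by linear interpolation between flanking doses. Not reached: highest tested concentration assigned. Abbreviation: GI50, concentration required for 50% inhibition of growth. The concentration for full growth arrest is given as TGI.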

Among the test systems are EKVX NSCLC; HCT-15 colon; HT29 colon; IGROV1 ovarian; K-562 leukemia; MCF7 breast; SF-268 CNS; SK-MEL-5 melanoma; SR leukemia; HOP-92 NSCLC.
Assay in all cases: DTP human tumour cell line panel, 48 h

For the molecule `CN(C)CCNC(=O)Cn1ccc(=O)c2c([N+](=O)[O-])cccc21`, the TGI in the test with EKVX NSCLC, with HCT-15 colon, in the test with HT29 colon, in the test on IGROV1 ovarian, with K-562 leukemia and in the test with MCF7 breast was > 100 µM each time. The TGI with SF-268 CNS, in the test on SK-MEL-5 melanoma and in the test with SR leukemia was > 100 µM throughout.

For the molecule `CC(=O)c1ccc(O)c(CN(C2CCCCC2)C2CCCCC2)c1O`, the TGI in the test with EKVX NSCLC, in the test with HCT-15 colon, in the test with HOP-92 NSCLC, in the test with HT29 colon, in the test with IGROV1 ovarian and in the test on K-562 leukemia was > 100 µM in each case. In addition, the TGI with MCF7 breast, in the test with SF-268 CNS and in the test on SK-MEL-5 melanoma was > 100 µM each time.

Consider `CC(=O)/C(=C/c1ccccc1F)C(=O)c1ccccc1`, for which the TGI with EKVX NSCLC, in the test with HCT-15 colon, in the test on HOP-92 NSCLC, with HT29 colon, in the test on IGROV1 ovarian and in the test with MCF7 breast was > 100 µM each time. Besides, the TGI with SF-268 CNS and in the test on SK-MEL-5 melanoma was > 100 µM throughout.

For the molecule `COc1cc(NCCCCCCCNC(C)C)c2nccc(C)c2c1`, the GI50 with EKVX NSCLC is 10.9 µM; with HCT-15 colon, 12.2 µM; in the test on HOP-92 NSCLC it was 10.7 µM; in the test with HT29 colon, 4.29 µM; in the test with IGROV1 ovarian, 13.3 µM; in the test on K-562 leukemia, 3.46 µM. The GI50 is 2.68 µM with MCF7 breast, 16.3 µM in the test on SF-268 CNS and 11.9 µM in the test with SK-MEL-5 melanoma. Besides, the TGI with EKVX NSCLC was 26.5 µM; in the test with HCT-15 colon, 27.3 µM; in the test on HOP-92 NSCLC, 23.8 µM; in the test on HT29 colon, 16.4 µM; in the test on IGROV1 ovarian, 34.5 µM; in the test on K-562 leukemia, 14.6 µM. Further, the TGI is 10.8 µM with MCF7 breast, 31.9 µM with SF-268 CNS and 24.6 µM with SK-MEL-5 melanoma.

For `CC(=O)OC(Cn1cncn1)(Cn1cncn1)c1ccc(Cl)cc1Cl`, the TGI in the test on EKVX NSCLC, in the test on HCT-15 colon, in the test with HOP-92 NSCLC, with HT29 colon, with IGROV1 ovarian and with K-562 leukemia was > 100 µM each time. For the same molecule, the concentration for total growth inhibition (TGI) in the test with MCF7 breast, in the test on SF-268 CNS and in the test with SK-MEL-5 melanoma was > 100 µM each time.

For the molecule `O=C1CCCCN1CCCCC#Cc1cccc(C#Cc2cccnc2)c1`, the GI50 was 23.5 µM in the test with EKVX NSCLC; 3.96 µM with HCT-15 colon; 19.2 µM in the test with HOP-92 NSCLC; 11.9 µM with HT29 colon; 14.7 µM in the test on IGROV1 ovarian; 14.7 µM in the test with K-562 leukemia. In addition, the values for the GI50 in the test on MCF7 breast, in the test with SF-268 CNS and with SK-MEL-5 melanoma were 30.4 µM, 27 µM and 14.3 µM, respectively. Further, the TGI in the test with EKVX NSCLC was > 100 µM; in the test on HCT-15 colon, 17.7 µM; in the test on HOP-92 NSCLC it was > 100 µM; in the test on HT29 colon it was 40 µM; in the test on IGROV1 ovarian it was 43.1 µM; with K-562 leukemia, > 100 µM. For the same molecule, the values for the TGI in the test on MCF7 breast, in the test with SF-268 CNS and with SK-MEL-5 melanoma were > 100 µM, > 100 µM and 36.3 µM, respectively.

`Cc1ccc(NC(=O)c2cc(S(=O)(=O)N3C(=O)NC(=O)NS3(=O)=O)c(S)cc2Cl)cc1`: the GI50 is 29.5 µM with EKVX NSCLC; 33.2 µM in the test on HCT-15 colon; 15.6 µM with HOP-92 NSCLC; 42.8 µM with HT29 colon; 26.1 µM in the test with IGROV1 ovarian; 22.2 µM in the test with K-562 leukemia. Further, the GI50 in the test with MCF7 breast was 28 µM; in the test with SF-268 CNS, 38.1 µM; with SK-MEL-5 melanoma it was 15.4 µM. Moreover, the TGI in the test with EKVX NSCLC was 96.7 µM; with HCT-15 colon, > 100 µM; with HOP-92 NSCLC, 54.7 µM; with HT29 colon it was > 100 µM; in the test with IGROV1 ovarian, 90.4 µM; with K-562 leukemia, 68.7 µM. The TGI in the test on MCF7 breast is > 100 µM; in the test with SF-268 CNS, > 100 µM; in the test on SK-MEL-5 melanoma, 32 µM.

For the molecule `O=c1cc(/C=C/c2ccccc2)[nH]c2cc3c(cc12)OCO3`, the TGI in the test on EKVX NSCLC came to 25 µM; in the test with HCT-15 colon it was 8.23 µM; in the test on HOP-92 NSCLC it was 14.8 µM; in the test on HT29 colon it was 5.58 µM; in the test with IGROV1 ovarian, 19.8 µM; in the test on MCF7 breast, 21.5 µM. The TGI in the test with SF-268 CNS was 30.4 µM; with SK-MEL-5 melanoma, 12.3 µM. Moreover, the GI50 with SF-268 CNS is 7.12 µM; with SK-MEL-5 melanoma, 2.17 µM.

Consider `CCCCCCCCCCCCCCCC[N+]1(C)CCOCC1`, for which the GI50 was 3.42 µM in the test on EKVX NSCLC; 2.55 µM with HCT-15 colon; 0.499 µM in the test with HOP-92 NSCLC; 0.766 µM with HT29 colon; 2.72 µM in the test with MCF7 breast; 1.63 µM in the test on SF-268 CNS. Moreover, in the test with SR leukemia, the GI50 is 1.28 µM. The TGI in the test on EKVX NSCLC was 20.1 µM; in the test with HCT-15 colon, 7.99 µM; in the test on HOP-92 NSCLC, 2.64 µM; in the test on HT29 colon it was 3 µM; in the test on MCF7 breast, 13.2 µM; in the test with SF-268 CNS it was 4.22 µM. Further, the TGI in the test on SR leukemia amounted to 4.66 µM.

For `COc1ccc(C(=O)c2ccc([As]=O)cc2)cc1` (stereo unspecified), the GI50 with EKVX NSCLC was 0.132 µM; with HCT-15 colon it was 0.0259 µM; in the test on HOP-92 NSCLC, 0.13 µM; in the test on HT29 colon, 0.0489 µM; in the test on IGROV1 ovarian, 0.0363 µM; with MCF7 breast it was 0.0212 µM. Also, the GI50 was 0.0348 µM in the test on SF-268 CNS and 0.14 µM in the test with SK-MEL-5 melanoma. Also, the TGI with EKVX NSCLC stood at 0.293 µM; with HCT-15 colon, 0.11 µM; with HOP-92 NSCLC, 0.262 µM; in the test with HT29 colon, 0.236 µM; in the test with IGROV1 ovarian it was 0.158 µM; with MCF7 breast it was 0.136 µM. In addition, the TGI in the test with SF-268 CNS was 0.136 µM; with SK-MEL-5 melanoma, 0.288 µM.

For `C[C@H]1CCCC(O)C(O)[C@@H]2C[C@H](O[Si](C)(C)C(C)(C)C)C[C@H]2[C@H](O[Si](C)(C)C(C)(C)C)C(O)C(O)C(=O)O1` (stereo partly specified), the GI50 with EKVX NSCLC is 26.1 µM; in the test on HT29 colon, 62.7 µM; in the test on IGROV1 ovarian, 16.2 µM; in the test with K-562 leukemia, 69.4 µM; in the test on MCF7 breast it was 50.2 µM; with SF-268 CNS, 20 µM. In addition, the GI50 in the test with SK-MEL-5 melanoma is 45.4 µM. The TGI is 72.3 µM in the test on EKVX NSCLC; > 100 µM in the test with HT29 colon; 43 µM in the test on IGROV1 ovarian; > 100 µM in the test on K-562 leukemia; > 100 µM in the test with MCF7 breast; > 100 µM in the test on SF-268 CNS. Further, in the test with SK-MEL-5 melanoma, the TGI was > 100 µM.

In the case of `N#Cc1ccc(NC(=O)C(CC(=O)OCc2ccccc2)NC(=O)OCc2ccccc2)cc1` (stereo unspecified), the GI50 in the test on EKVX NSCLC, with HCT-15 colon, in the test on HOP-92 NSCLC, in the test on HT29 colon, with IGROV1 ovarian and in the test on MCF7 breast was > 100 µM throughout. Moreover, the GI50 in the test on SR leukemia was > 100 µM. Moreover, the total growth inhibition concentration (TGI) in the test with EKVX NSCLC, in the test on HCT-15 colon, in the test on HOP-92 NSCLC, in the test with HT29 colon, with IGROV1 ovarian and in the test with MCF7 breast was > 100 µM in each case. In addition, the TGI in the test on SK-MEL-5 melanoma and with SR leukemia was > 100 µM throughout.

As for `C=CC(OCC)(OCC)OCC`, the TGI in the test on EKVX NSCLC, with HCT-15 colon, with HOP-92 NSCLC, in the test with HT29 colon, in the test on IGROV1 ovarian and in the test on K-562 leukemia was > 100 µM each time. In addition, the TGI in the test on SF-268 CNS was > 100 µM; in the test with SK-MEL-5 melanoma it was > 100 µM; with SR leukemia, 65.4 µM.

Turning to `O=S(=O)(NCCCNc1nccc(-c2c(-c3ccc(F)cc3)nc3sccn23)n1)c1ccc2ccccc2c1`, the GI50 with HCT-15 colon was 3.26 µM; with HOP-92 NSCLC it was 6.36 µM; with HT29 colon, 2.4 µM; in the test on IGROV1 ovarian, 5.37 µM; in the test with MCF7 breast, 3.71 µM; in the test on SF-268 CNS it was 6.46 µM. Further, the GI50 is 4.17 µM in the test on SK-MEL-5 melanoma and 4.01 µM with SR leukemia. In addition, the TGI in the test on HCT-15 colon is > 100 µM; in the test with HOP-92 NSCLC, > 100 µM; in the test on HT29 colon it was 7.58 µM; in the test on IGROV1 ovarian it was > 100 µM; in the test with MCF7 breast, > 100 µM; in the test on SF-268 CNS, > 100 µM. The TGI in the test with SK-MEL-5 melanoma and in the test on SR leukemia was > 100 µM in each case.

Regarding `CCCCn1c(-c2ccc(C(=O)O/N=C(\N)c3ccc4c(c3)OCO4)cc2)nc(-c2ccccc2)c1-c1ccccc1`, the GI50 in the test with EKVX NSCLC was 2.07 µM; with HCT-15 colon it was 2.63 µM; with HT29 colon, 3.33 µM; with IGROV1 ovarian it was 0.465 µM; with MCF7 breast, 2.38 µM; in the test with SF-268 CNS it was 1.97 µM. The GI50 in the test on SK-MEL-5 melanoma is 1.98 µM. Further, the TGI with EKVX NSCLC is 7.74 µM; in the test with HCT-15 colon, > 100 µM; in the test with HT29 colon, > 100 µM; in the test with IGROV1 ovarian, 1.8 µM; in the test with MCF7 breast, 8.83 µM; with SF-268 CNS it was 4.37 µM. In the test with SK-MEL-5 melanoma, the TGI worked out at 4.54 µM.

Take `CC(=O)OCC1OC(N2C(=O)C(=O)c3ccccc32)C(OC(C)=O)C(OC(C)=O)C1OC(C)=O` (stereo unspecified): the TGI in the test with EKVX NSCLC, with HCT-15 colon, in the test on HOP-92 NSCLC, in the test on HT29 colon, in the test on IGROV1 ovarian and in the test on K-562 leukemia was > 100 µM throughout. For the same molecule, the TGI in the test on SF-268 CNS, in the test with SK-MEL-5 melanoma and with SR leukemia was > 100 µM each time.

The term TGI denotes the concentration giving total growth inhibition. Broadly, the GI50 is the concentration that inhibits growth by half.
